Measurements as given in publication PMC12970513, “Unsaturated Phosphorus Electrophiles to Probe Protein Tyrosine Phosphatases” (Angewandte Chemie (International Ed. in English), 2026).

Tested on: PTP1B in MCF-7 cell lysate
Test: Proteomic profiling (SP2E enrichment, LC-MS/MS), MCF-7 lysate
Set-up: species or system human
Details: 500 µM SM-PO, vs DMSO
Procedure: Finally, we employed bottom‐up proteomics to validate that the labeled protein corresponds to the intended target PTP1B. For this, first MCF‐7 cell lysate (400 µg) was treated with 500 µM bio‐PO for 4 h. Directly afterwards, we applied a protocol described by the Kielkowski group, termed SP2E, which integrates protein purification with magnetic carboxyl‐coated beads and enrichment using magnetic streptavidin beads (Figure 5c). […] We reasoned that this might be due to the lower abundance of PTP1B in HEK293T compared to MCF‐7 lysate. Therefore, the protocol was repeated by doubling the proteome input to 800 µg. Following this minor adjustment, PTP1B was then enriched in our analysis (>4‐fold) (Figure 5e). […] However, this protein is included in the contamination repository for affinity purification (CRAPome) and appears in about half of such experiments as a contaminant. Given the comparably low PTP1B levels in Ramos lysate, we refrained from attempting pull‐down experiments from this cell line. […]
For proteome labelling using the SP2E workflow, a modified protocol by Becker et al. was followed.^[13] […] Tryptic peptides were eluted from the magnetic beads using a magnetic rack, samples were diluted and analyzed by qToF for purity i.e. absence of detergents and successful trypsin digestion. […]

C#CP(=O)(O)Oc1ccc(CCNC(=O)CCCC[C@@H]2SC[C@@H]3NC(=O)N[C@@H]32)cc1 [SM-PO, 4-(2-biotinamidoethyl)phenyl ethynylphosphonic acid monoester]
other proteins enriched by SM-PO: adipocyte plasma membrane–associated protein (APMAP) was identified among the enriched proteins
enrichment of PTP1B or other phosphatases by SM-PO (enrichment >2 log2 fold change, p ≤ 0.05): neither PTP1B nor any other phosphatase was significantly enriched
